The values that follow come from US4220577A, “Iodopropargyl pyridyl and picolinyl ethers and thioethers as paint fungicides” (Givaudan Corporation, priority 1979, dated 1980).

Experiment [1] relates to mildew. Put plainly: Outdoor field test of painted pine panels. Conditions: .5%. An excerpt:
A number of the compounds were field tested in various latex paints. Pine panels (6"×12"×1/2") were given two coats of paint and, after drying, were exposed at an outdoor location subject to high heat and humidity levels. Paints containing the novel componds of this invention were compared with those containing the commercial mecurial mildewcide phenyl mecuric acetate (PMA), a commercial non-mercurial mildewcide 2-n-octyl-4-isothiazolin-3-one and 3-iodo-2-propynyloxybenzene.

In experiment [2] the test system is Aspergillus oryzae. Put plainly: 5-fold serial dilution test in agar, MIC, F2. It is filed as cell-based. Particulars: 168 h, 28° C., seven days, read-out: Minimum Inhibitory Concentration Range. The procedure:
(§1) Antibacterial and antifungal activity were evaluated by a 5-fold serial dilution test in agar. In this test, compounds were prepared as 6% solutions in dimethylformamide or ethanol. The 6% solution was then 5-fold serially diluted in test tubes to give the desired concentrations when mixed with agar and poured into sterile Petri dishes. Trypticase glucose extract agar was used for the bacterial testing; mildew glucose agar for the fungal testing. The bacterial plates were spot inoculated with 24-hour nutrient broth cultures and incubated at 37° C. for 48 hours. The fungal plates were spot inoculated with spore suspensions and incubated at 28° C. for seven days. At the end of the incubation periods, all plates were examined for growth. The minimum inhibitory concentration (MIC) for each organism is expressed in Table I. In the ranges presented, growth is observed only at the lower concentration.

Experiment [3] deals with Aspergillus niger. Put plainly: 5-fold serial dilution test in agar, MIC, F1. It is filed as cell-based. Conditions: 168 h, 28° C., seven days, read-out: Minimum Inhibitory Concentration Range. The procedure:
as §1

Experiment [4] has as its system Pseudomonas aeruginosa. Put plainly: 5-fold serial dilution test in agar, MIC, B3. The format is cell-based. Conditions: 37° C., 48 hours, read-out: Minimum Inhibitory Concentration Range. The procedure:
as §1
B3 Pseudomonas aeruginosa

Experiment [5] has as its system Penicillium piscarium. Kind of experiment: 5-fold serial dilution test in agar, MIC, F3. The format is cell-based. Conditions: 168 h, 28° C., seven days, read-out: Minimum Inhibitory Concentration Range. How it is done:
as §1
F3 Penicillium piscarium

For experiment [6], the system named is Escherichia coli. Put plainly: 5-fold serial dilution test in agar, MIC, B2. Particulars: 37° C., 48 hours, read-out: Minimum Inhibitory Concentration Range. The format is cell-based. The procedure:
as §1

Experiment [7] relates to Bacillus subtilis. Kind of experiment: 5-fold serial dilution test in agar, MIC, B5. It is filed as cell-based. Particulars: 37° C., 48 hours, read-out: Minimum Inhibitory Concentration Range. The procedure:
as §1
B5 Bacillus subtilis 4 3 μg/ml

In experiment [8] the test system is Staphylococcus aureus. Put plainly: 5-fold serial dilution test in agar, MIC, B1. It is filed as cell-based. Particulars: 37° C., 48 hours, read-out: Minimum Inhibitory Concentration Range. The procedure: as §1
B1 Staphylococcus aureus

Experiment [9] relates to Proteus vulgaris. Kind of experiment: 5-fold serial dilution test in agar, MIC, B4. The format is cell-based. Particulars: 37° C., 48 hours, read-out: Minimum Inhibitory Concentration Range. How it is done: as §1
The test system of experiment [10] is Aureobasidium pullulans. Kind of experiment: 5-fold serial dilution test in agar, MIC, F4. The format is cell-based. Conditions: 168 h, 28° C., seven days, read-out: Minimum Inhibitory Concentration Range. The procedure:
as §1
F4 Aureobasidium pullulans

SMILES strings stand for the structures. Values after ≈ are worked out from the molar mass of the structure shown.

For the compound `IC#CCOc1cccnc1` [Compound 1, 3-(3-iodo-2-propynyloxy)pyridine], the “Panel Scoring” value in [1] (Paint B (Acrylic latex-alkyd modified), month 5) is reported as 8; in experiment [1] (Paint B (Acrylic latex-alkyd modified), month 6), 8.

As to `CCCCCCCCn1sccc1=O` [II, 2-n-octyl-4-isothiazolin-3-one, reference compound], the “Panel Scoring” value in experiment [1] (Paint A (Vinyl acetate latex), month 4) is 8.

Regarding `IC#CCOc1cccnc1` [drawing 2], the MIC was 0.12 to 0.6 µg/mL (≈ 0.463 to 2.32 µM) in experiment [2]; 0.03 to 0.12 µg/mL (≈ 0.116 to 0.463 µM) in experiment [3]; > 1920 µg/mL in experiment [4]; 0.12 to 0.6 µg/mL (≈ 0.463 to 2.32 µM) in experiment [5]; 76 to 384 µg/mL (≈ 293 to 1480 µM) in experiment [6]; 3 to 15 µg/mL (≈ 11.6 to 57.9 µM) in [7]. Further, the MIC fell in the range of 15 to 76 µg/mL (≈ 57.9 to 293 µM) in experiment [8], 3 to 15 µg/mL (≈ 11.6 to 57.9 µM) in experiment [9] and 0.12 to 0.6 µg/mL (≈ 0.463 to 2.32 µM) in experiment [10].

For `Cc1ccc(OCC#CI)cn1` [drawing 3], the MIC in experiment [2] is < 0.03 µg/mL; in experiment [3] it was < 0.03 µg/mL; in experiment [4] it was > 1920 µg/mL; in experiment [5] it was 0.03 to 0.12 µg/mL (≈ 0.11 to 0.439 µM); in [6], > 1920 µg/mL; in experiment [7], > 1920 µg/mL. Also, the MIC in experiment [8] was > 1920 µg/mL; in experiment [9], > 1920 µg/mL; in experiment [10], < 0.03 µg/mL.

As for `Clc1ncccc1OCC#CI` [drawing 4], the MIC in experiment [2] is 0.03 to 0.12 µg/mL (≈ 0.102 to 0.409 µM); in experiment [3], < 0.03 µg/mL; in experiment [4], > 1920 µg/mL; in experiment [5], 0.12 to 0.6 µg/mL (≈ 0.409 to 2.04 µM); in experiment [6] it was 15 to 76 µg/mL (≈ 51.1 to 259 µM); in experiment [7], 3 to 15 µg/mL (≈ 10.2 to 51.1 µM). The figures for the MIC in [8], in [9] and in [10] were 3 to 15 µg/mL (≈ 10.2 to 51.1 µM), 3 to 15 µg/mL (≈ 10.2 to 51.1 µM) and 0.12 to 0.6 µg/mL (≈ 0.409 to 2.04 µM), respectively.

Regarding `Cc1ccc(OCC#CI)c(Cl)n1` [drawing 5], the MIC is 0.03 to 0.12 µg/mL (≈ 0.0976 to 0.39 µM) in [2]; < 0.03 µg/mL in [3]; > 1920 µg/mL in experiment [4]; 0.12 to 0.6 µg/mL (≈ 0.39 to 1.95 µM) in experiment [5]; > 1920 µg/mL in experiment [6]; 15 to 76 µg/mL (≈ 48.8 to 247 µM) in [7]. Also, the results for the MIC in experiment [8], in experiment [9] and in [10] were 384 to 1920 µg/mL (≈ 1250 to 6240 µM), > 1920 µg/mL and 0.03 to 0.12 µg/mL (≈ 0.0976 to 0.39 µM), respectively.

For the compound `Nc1ncccc1OCC#CI` [drawing 6], the MIC in experiment [2] lay within 0.12 to 0.6 µg/mL (≈ 0.438 to 2.19 µM); in [3], 0.12 to 0.6 µg/mL (≈ 0.438 to 2.19 µM); in experiment [4], 76 to 384 µg/mL (≈ 277 to 1400 µM); in experiment [5], 0.6 to 3 µg/mL (≈ 2.19 to 10.9 µM); in experiment [6] it was 15 to 76 µg/mL (≈ 54.7 to 277 µM); in experiment [7], 15 to 76 µg/mL (≈ 54.7 to 277 µM). The MIC is 15 to 76 µg/mL (≈ 54.7 to 277 µM) in [8], 3 to 15 µg/mL (≈ 10.9 to 54.7 µM) in experiment [9] and 0.6 to 3 µg/mL (≈ 2.19 to 10.9 µM) in experiment [10].

On to `IC#CCSc1cccnc1` [drawing 7], for which the MIC in experiment [2] was < 0.03 µg/mL; in experiment [3], 15 to 76 µg/mL (≈ 54.5 to 276 µM); in [4], > 1920 µg/mL; in experiment [5] it was 0.12 to 0.6 µg/mL (≈ 0.436 to 2.18 µM); in experiment [6], > 1920 µg/mL; in experiment [7] it was > 1920 µg/mL. In addition, the MIC was > 1920 µg/mL in [8], > 1920 µg/mL in experiment [9] and 0.12 to 0.6 µg/mL (≈ 0.436 to 2.18 µM) in experiment [10].

Take `IC#CCOCc1cccnc1` [drawing 8]: the MIC was 0.12 to 0.6 µg/mL (≈ 0.439 to 2.2 µM) in experiment [2]; 0.03 to 0.12 µg/mL (≈ 0.11 to 0.439 µM) in [3]; > 1920 µg/mL in [4]; 0.12 to 0.6 µg/mL (≈ 0.439 to 2.2 µM) in [5]; 76 to 384 µg/mL (≈ 278 to 1410 µM) in [6]; 76 to 384 µg/mL (≈ 278 to 1410 µM) in [7]. The MIC in experiment [8] was 76 to 384 µg/mL (≈ 278 to 1410 µM); in [9], 15 to 76 µg/mL (≈ 54.9 to 278 µM); in [10], 0.6 to 3 µg/mL (≈ 2.2 to 11 µM).

With `IC#CCOc1ccncc1` [drawing 9], the MIC is 0.03 to 0.12 µg/mL (≈ 0.116 to 0.463 µM) in experiment [2]; < 0.03 µg/mL in [3]; > 1920 µg/mL in experiment [4]; 0.03 to 0.12 µg/mL (≈ 0.116 to 0.463 µM) in [5]; 384 to 1920 µg/mL (≈ 1480 to 7410 µM) in experiment [6]; 3 to 15 µg/mL (≈ 11.6 to 57.9 µM) in [7]. Further, the MIC in experiment [8] lay in the range of 384 to 1920 µg/mL (≈ 1480 to 7410 µM); in experiment [9], 76 to 384 µg/mL (≈ 293 to 1480 µM); in [10], 0.12 to 0.6 µg/mL (≈ 0.463 to 2.32 µM).

As for `IC#CCSc1ccncc1` [drawing 10], the MIC was 0.12 to 0.6 µg/mL (≈ 0.436 to 2.18 µM) in experiment [2]; < 0.03 µg/mL in experiment [3]; > 1920 µg/mL in [4]; 0.12 to 0.6 µg/mL (≈ 0.436 to 2.18 µM) in experiment [5]; > 1920 µg/mL in experiment [6]; 76 to 384 µg/mL (≈ 276 to 1400 µM) in [7]. The MIC was in the range of 384 to 1920 µg/mL (≈ 1400 to 6980 µM) in experiment [8], 384 to 1920 µg/mL (≈ 1400 to 6980 µM) in experiment [9] and 0.12 to 0.6 µg/mL (≈ 0.436 to 2.18 µM) in experiment [10].
